In patent US20070231897A1, “Induction of Insulin Secreting Cell” (KYOTO UNIVERSITY, priority 2004, published 2007):

Columns and labels:
pancreatic acinar cells [1] = assay: Correlation between EGF concentration and induction of colonies containing insulin-positive cells; format: cell-based, mouse; conditions: 0.5% fetal bovine serum (FIG. 9)
Procedure: The recovered cells were suspended in a nutrition medium (e.g., RPMI-1640) containing 0.5% fetal bovine serum (Sigma) and 20 ng/ml epidermal growth factor (EGF) (R&D Systems: Minneapolis, Minn., USA), and inoculated in cell culture dishes which were less adhesive for cells (Nalge Nunc: Rochester, N.Y., USA) and cultured in an incubator set at 37° C., 5% CO2. The pancreatic acinar cells, at early stages of culture, formed cell clusters having smooth boundaries consisting of congregated cells and, and kept themselves floating (FIG. 1A), and, at around day 3, adhere to the bottom of the dish and started to extend on it. After about 7 days, they formed relatively small cell aggregates (colonies) consisting of several dozen to several hundred cells (FIG. 1B). The cell density upon inoculation, which ranged from 1- to 10-fold dilution of that in pre-culture, had no influence on the form of the colonies observed.
In accordance with the method described in Example 1, except that the concentration of fetal bovine serum was fixed at 0.5% and EGF was used as the growth factor at a concentration of 0, 2, 20 or 200 ng/ml, main culture of pancreatic acinar cells were performed to assess the effect of EGF on induction of aimed cells (cells forming colonies containing insulin-positive cells as shown in FIG. 1B).

pancreatic acinar cells [2] = assay: Effect of growth factors on insulin-positive cell induction in main culture of pancreatic acinar cells; format: cell-based, mouse; conditions: day 7 of culture, EGF 20 ng/ml, HGF, FGF7 and FGF10 10 ng/ml, GLP-1 30 ng/ml; for proportion of insulin-positive cells: rank among growth factors (FIG. 8B)
Procedure: Eight-week old male mice (C57B1/6Cr Slc)(Japan SLC, Inc.: Hamamatsu, Japan) were anesthetized with 50 mg/kg of Nembtal (Dainippon Pharma Co., Ltd.: Osaka, Japan) and subjected to laparotomy. The choledoch duct was ligated near the position where it opens to the duodenum. Using a 27G winged needle (Terumo Corporation: Tokyo, Japan), 2-3 ml of Hank's buffer containing 0.05% collagenase P (Roche: Basel, Switzerland) and 10% fetal bovine serum was infused from the liver side. The pancreas, now swollen, was extracted and digested in 5 ml of Hank's buffer per pancreas for 18 minutes at 37° C. The digested pancreas then was made to pass through a 14G indwelling needle in both directions twice to disperse the pancreatic cells, which washed well with Hank's buffer containing 0.1% bovine serum albumin (Sigma: Saint Louis, Mo., USA). The pancreatic cells thus obtained were suspended in a mixed solution (solution A) consisting of 8.3% Ficoll 400 (Amersham Bioscience: Uppsala, Sweden) and 16.7% Conray 400 (Daiichi Pharmaceutical, Tokyo, Japan), and after a 87.5%-diluted solution of solution A and then a 50%-diluted solution of solution A were placed on it in the order, centrifuged (2,000 rpm, 10 min). Pancreatic acinar cells condensed in the spun down, lowest fraction were collected, and to them was added a sterilized 0.1 mg/ml solution of dithizone (1,5-diphenylthiocarbazone) (Nacalai Tesque, Inc.: Kyoto, Japan) and stained for 15 minutes at 37° C. in order to remove contaminating mature B-cells. Mature B-cells are stained red with dithizone, which is a chelating agent for zinc, for high concentration of insulin occurs in mature B-cells in the form of a hexamer via zinc (Latif et al., Transplantation, 45:827(1988)). By removing red-stained mature B-cells under a stereomicroscope, a fraction containing highly concentrated pancreatic acinar cells were obtained. […]

Row | Substance | effect on induction of aimed cells (cells forming colonies containing insulin-positive cells) (pancreatic acinar cells [1]; EGF 20 ng/ml) | effect on induction of aimed cells (cells forming colonies containing insulin-positive cells) (pancreatic acinar cells [1]; EGF 200 ng/ml) | total cell count (growth of the cells) (pancreatic acinar cells [2]; rank among growth factors (FIG. 8A)) | proportion of insulin-positive cells (pancreatic acinar cells [2])
1 | epidermal growth factor [EGF, epidermal growth factor (R&D Systems), growth factor added to the culture medium] | remarkable effect | remarkable effect | most effective | most effective
2 | hepatocyte growth factor [HGF] |  |  |  | this was followed by FGF10 and HGF
